Measured values reported in US20160312240A1, “MODIFIED PYR/PYL RECEPTORS ACTIVATED BY ORTHOGONAL LIGANDS” (The Regents of the University of California, priority 2010, published 2016).

Assays:
[1] = tested on: PYR1 variants 27B-1, 27B-2, 27B-3, 27B-4, 27B-7, 27B-8 (Table 7); assay: MAV99 growth selection, second round of shuffling (27B' library); format: cell-based, Arabidopsis; details: 20 μM fenhexamid; media lacking uracil; Table 7 variants
Experimental: To improve fenhexamid receptor sensitivity, DNA shuffling was employed using the same general experimental scheme outlined previously. Briefly, equimolar amounts of plasmid DNA for the fenhexamid receptors shown in Table 1 were pooled and combined with an equimolar amount of the ePCR1 library DNA. The pooled templates were utilized for DNA shuffling, which was conducted as described in Example 1. A library (named “27”) of ˜400,000 shuffled variants was prepared. The DNA for this library was introduced into the MAV99 pAD-HAB 1 yeast strain as described above and the resulting yeast cells collected and grown on FOA-containing plates to reduce constitutive mutants in the library, yielding the 27B′ library. The 27B′ library was plated onto media lacking uracil but containing 20 μM fenhexamid. ˜50 positives were selected from these plates and subsequently retested on media lacking […] to distinguish constitutive mutants (i.e., false positives) from those mutants that grow specifically in response to fenhexamid (i.e., true positives). The PYR1 coding sequences for the true positives were sequenced to yield the following series of fenhexamid-responsive PYR1 variants (Table 7): […]

[2] = target: T1, PYL2 K64R,Y124H,M164I,V67I,V114I (Arabidopsis thaliana, UniProt O80992, K64R/M164I/V114I/V67I/Y124H); assay: In vitro PP2C inhibition assay, 2:1 receptor to phosphatase; format: biochemical; details: FIG. 3B
T1 construct: expressed in transfected cells; host or cells: Saccharomyces cerevisiae Y190 pAD-HAB1
Experimental: (§1) FIGS. 3A-3B. […] FIG. 3A. […] In addition, pocket residue mutations at V114I and/or V67I were introduced. The mutants (listed on left side of panel) were constructed in pBD-PYL2 and transformed into Y190 pAD-HAB1 yeast cells. The transformants were then grown on increasing concentrations of fenhexamid and scored for responsiveness using X-gal staining, performed as described in Park et al., 2009. […] FIG. 3B. In vitro characterization of PYL2 K64R, Y124H, M164I, V67I, V114I mutant. Recombinant wild-type and mutant PYL2 proteins were produced as described previously and used in PP2C assays, as described previously (Park et al., 2009), with the exception that a 2:1 ratio of receptor for phosphatase was used.
(§2) PYR1 is a member of the PYR/PYL receptor protein family, which in Arabidopsis contains 14 members. […] Given the conserved nature of these residues, we speculated that fenhexamid sensitivity could be engineered into other receptor family members by mutating homologous residues in other PYR/PYL receptors. To test this, we introduced the homologous mutations in PYL2 (K64R, corresponding to K59R in PYR1; Y124H, corresponding to Y120H in PYR1; and M164I, corresponding to M158I in PYR1), creating the mutant PYL2^K64R,Y124H,M164I. […]

[3] = tested on: wild-type Columbia plants; assay: Water loss from detached aerial rosettes; format: in vivo, Arabidopsis; details: 100 μM spray, approximately 16 hours pretreatment, FIG. 7
Experimental: FIG. 7. […] Columbia plants were treated with control, 100 μM fenhexamid, or 100 μM ABA containing solutions. Plants were treated as described in the Examples section below and water loss from aerial rosettes was measured after detachment.
Transgenic or control (wild-type) plants were grown under a 16 hr light/8 hr dark cycle for 3 weeks and then treated with either 100 μM (+)-ABA, 100 μM fenhexamid, or control (containing 0.1% Tween-20, 0.1% DMSO). ABA treatments were conducted as a positive control. The plants were sprayed in the evening prior to conducting water loss experiments. The next morning, approximately 16 hours post-treatment, the above-ground rosettes of the experimental samples were collected and transferred to weighing dishes, 8 plants per measured sample, and maintained under ˜90-100 μEinstein/m^2 fluorescent light illumination. Four groups of eight plants were measured per time point at 20 min intervals. The experiments were repeated three times over the course of an eight-week interval. […] It should be noted, however, that ABA can activate all of the PYR/PYL receptors in a plant genome (at least 13 in Arabidopsis), while fenhexamid is selectively activating a single engineered receptor, PYL2^K64R,Y124H,M164I,V67I,V114I. […]

[4] = target: T1, PYL2 K64R,Y124H,M164I,V67I,V114I; assay: Yeast two-hybrid assay, strain Y190 pAD-HAB1, X-gal staining; format: cell-based; details: FIG. 3A
Experimental: as §1, §2

[5] = tested on: PYR/PYL-PP2C protein-protein interactions; assay: Yeast competition screen: reduction of ABA-promoted PYR/PYL-PP2C interaction; format: cell-based; details: 100 nM ABA and 100 μM test chemical (1000-fold excess), yeast strains
Excerpt: To isolate PYR1 orthogonal receptors, a two-step process was used. First, a large collection of compounds was screened to identify compounds that weakly interact with receptors, defined as such by their ability to displace receptor-bound ABA in competition experiments. Once weak binders were identified, those with the most desirable properties from an end-use perspective were used as targets for iterative mutagenesis and selection schemes. Pre-selection of weak-binding ligands improves the frequency of isolating new receptor proteins, because fewer alterations of the ligand binding site are required to achieve molecular recognition. However, pre-selection is not a prerequisite for success.
Pre-selection of ligands. 74 structurally diverse agrochemicals were obtained, selected from a larger set of approximately 1500 commercially available agrochemicals. These 74 compounds were tested for their ability to reduce ABA-promoted PYR/PYL-PP2C protein-protein interactions in suitable yeast strains when added at 1000-fold excess relative to ABA (i.e. 100 nM ABA and 100 μM test chemical).

T1 sequence (Q9CAJ0 23-511): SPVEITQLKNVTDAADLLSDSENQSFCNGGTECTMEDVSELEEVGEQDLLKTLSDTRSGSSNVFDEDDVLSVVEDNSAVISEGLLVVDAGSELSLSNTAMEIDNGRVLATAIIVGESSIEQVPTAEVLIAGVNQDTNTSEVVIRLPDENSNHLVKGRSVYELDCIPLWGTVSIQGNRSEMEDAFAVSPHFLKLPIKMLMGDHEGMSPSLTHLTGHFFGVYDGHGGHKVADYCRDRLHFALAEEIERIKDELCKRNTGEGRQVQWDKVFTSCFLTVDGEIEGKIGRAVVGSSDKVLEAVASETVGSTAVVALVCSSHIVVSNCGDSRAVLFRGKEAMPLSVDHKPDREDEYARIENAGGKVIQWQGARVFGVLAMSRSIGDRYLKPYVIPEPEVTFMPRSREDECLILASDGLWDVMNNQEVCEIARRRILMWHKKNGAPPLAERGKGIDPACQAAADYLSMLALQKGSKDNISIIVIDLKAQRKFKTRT
T1 sequence (O80992 whole entry K64R/V67I/V114I/Y124H/M164I): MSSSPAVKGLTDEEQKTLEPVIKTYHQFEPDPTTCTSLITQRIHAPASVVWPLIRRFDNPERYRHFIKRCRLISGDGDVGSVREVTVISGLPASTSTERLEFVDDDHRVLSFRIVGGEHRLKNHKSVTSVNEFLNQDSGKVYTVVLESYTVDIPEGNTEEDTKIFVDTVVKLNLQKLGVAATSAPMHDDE

CC1(C(=O)Nc2ccc(O)c(Cl)c2Cl)CCCCC1 [fenhexamid]
Growth in response to fenhexamid (selection) [1]: fenhexamid-responsive
Response to fenhexamid in in vitro PP2C inhibition assays [2]: respond
Water loss from detached rosettes [3]: does not affect water loss
Response to fenhexamid in yeast assays [4]: respond
ability to reduce ABA-promoted PYR/PYL-PP2C protein-protein interactions [5]: compete for ABA
